Experimental data reported in patent US8247211B2, “Glycopeptide antibiotics” (American Cyanamid Company, priority 2001, dated 2012).
In brackets after ≈: the same amount, converted by molar mass.

Assays:
Experiment in all cases: In vitro antibacterial evaluation: minimum inhibitory concentration (MIC), broth dilution method
Type in all cases: cell-based
Enterococcus sp. = test system: Enterococcus sp.
Experimental: (§1) The minimum inhibitory concentration (MIC), the lowest concentration of the antibiotic which inhibits growth of the test organism, is determined by the broth dilution method using Muller-Hinton II […] (Baltimore Biological Laboratories) following the recommendations of the National Committee for Clinical Laboratory Standards [Methods for dilution antimicrobial susceptibility tests for bacteria that grow aerobically, approved standard M7-A2, National Committee for Clinical Laboratory Standards, Villanova, Pa].
(§2) An inoculum level of 5×10^5 CFU/mL, and a range of antibiotic concentrations (64-0.06 μg/mL) is used. […] The test organisms include a spectrum of Gram-positive bacteria comprised of Staphylococcus sp., Streptococcus sp. and Enterococcus sp. These organisms include recent clinical isolates that are resistant to methicillin, penicillin and/or vancomycin.

Escherichia coli = test system: Escherichia coli
Experimental: as §1, §2

Staphylococcus sp. = details: broth dilution, 18 hours at 35° C.
Experimental: as §1, §2

Streptococcus sp. = test system: Streptococcus sp.
Experimental: as §1, §2

[1] = broth dilution, inoculum 5×10^5 CFU/mL, 18 hours at 35° C.

MIC Enterococcus avium (GC 4558) (Enterococcus sp.; [1]): 64 µg/mL (≈ 43.8 µM) | MIC Enterococcus faecalis (ATCC 29212) (Enterococcus sp.; [1]): >64 µg/mL | MIC Enterococcus faecalis (GC 4552) (Enterococcus sp.; [1]): >64 µg/mL | MIC Enterococcus faecalis (GC 4553) (Enterococcus sp.; [1]): >64 µg/mL | MIC Enterococcus faecalis (GC 4554) (Enterococcus sp.; [1]): >64 µg/mL | MIC Enterococcus faecalis (GC 6189) (Enterococcus sp.; [1]): >64 µg/mL | MIC Enterococcus faecium (GC 2243) (Enterococcus sp.; [1]): 64 µg/mL (≈ 43.8 µM) | MIC Enterococcus faecium (GC 4556) (Enterococcus sp.; [1]): >64 µg/mL | MIC Enterococcus faecium (GC 4557) (Enterococcus sp.; [1]): 8 µg/mL (≈ 5.47 µM) | MIC Enterococcus faecalis (ATCC 29212) (Enterococcus sp.; strain ATCC 29212): >64 µg/mL | MIC Enterococcus faecalis (GC 2242) (Enterococcus sp.; strain GC 2242): 64 µg/mL (≈ 43.8 µM) | MIC Enterococcus faecium (GC 2243) (Enterococcus sp.; strain GC 2243): 64 µg/mL (≈ 43.8 µM) | MIC Enterococcus faecalis (GC 2691) (Enterococcus sp.; strain GC 2691): >64 µg/mL | MIC Enterococcus faecalis (GC 3059) (Enterococcus sp.; strain GC 3059): >64 µg/mL | MIC Enterococcus faecalis (GC 4552) (Enterococcus sp.; strain GC 4552): >64 µg/mL | MIC Enterococcus faecalis (GC 4553) (Enterococcus sp.; strain GC 4553): >64 µg/mL | MIC Enterococcus faecalis (GC 4554) (Enterococcus sp.; strain GC 4554): >64 µg/mL | MIC Enterococcus faecium (GC 4556) (Enterococcus sp.; strain GC 4556): >64 µg/mL | MIC Enterococcus faecium (GC 4557) (Enterococcus sp.; strain GC 4557): 8 µg/mL (≈ 5.47 µM) | MIC Enterococcus avium (GC 4558) (Enterococcus sp.; strain GC 4558): 64 µg/mL (≈ 43.8 µM) | MIC Enterococcus faecalis (GC 6189) (Enterococcus sp.; strain GC 6189): >64 µg/mL | MIC Escherichia coli (ATCC 25922) (Escherichia coli; strain ATCC 25922): >64 µg/mL | MIC Escherichia coli (GC 4559) (Escherichia coli; strain GC 4559): >64 µg/mL | MIC Coagulase Negative Staphylococcus (GC 4547) (Staphylococcus sp.; 5×10^5 CFU/mL): 16 µg/mL (≈ 10.9 µM) | MIC Coagulase Negative Staphylococcus (GC 4548) (Staphylococcus sp.; 5×10^5 CFU/mL): 8 µg/mL (≈ 5.47 µM) | MIC Coagulase Negative Staphylococcus (GC 4549) (Staphylococcus sp.; 5×10^5 CFU/mL): 8 µg/mL (≈ 5.47 µM) | MIC Coagulase Negative Staphylococcus (GC 4551) (Staphylococcus sp.; 5×10^5 CFU/mL): 32 µg/mL (≈ 21.9 µM) | MIC Coagulase Negative Staphylococcus (GC 6257) (Staphylococcus sp.; 5×10^5 CFU/mL): 4 µg/mL (≈ 2.74 µM) | MIC Staphylococcus aureus (ATCC 29213) (Staphylococcus sp.; 5×10^5 CFU/mL): 32 µg/mL (≈ 21.9 µM) | MIC Staphylococcus aureus (GC 1131) (Staphylococcus sp.; 5×10^5 CFU/mL): 32 µg/mL (≈ 21.9 µM) | MIC Staphylococcus aureus (GC 3051) (Staphylococcus sp.; 5×10^5 CFU/mL): 16 µg/mL (≈ 10.9 µM) | MIC Staphylococcus aureus (GC 3053) (Staphylococcus sp.; 5×10^5 CFU/mL): 32 µg/mL (≈ 21.9 µM) | MIC Staphylococcus aureus (GC 4541) (Staphylococcus sp.; 5×10^5 CFU/mL): 16 µg/mL (≈ 10.9 µM) | MIC Staphylococcus aureus (GC 4542) (Staphylococcus sp.; 5×10^5 CFU/mL): 32 µg/mL (≈ 21.9 µM) | MIC Staphylococcus aureus (GC 4544) (Staphylococcus sp.; 5×10^5 CFU/mL): 32 µg/mL (≈ 21.9 µM) | MIC Staphylococcus aureus (GC 4545) (Staphylococcus sp.; 5×10^5 CFU/mL): 16 µg/mL (≈ 10.9 µM) | MIC Staphylococcus aureus-SMITH (GC 4543) (Staphylococcus sp.; 5×10^5 CFU/mL): 16 µg/mL (≈ 10.9 µM) | MIC Staphylococcus aureus (ATCC 29213) (Staphylococcus sp.; strain ATCC 29213): 32 µg/mL (≈ 21.9 µM) | MIC Staphylococcus aureus (GC 1131) (Staphylococcus sp.; strain GC 1131): 32 µg/mL (≈ 21.9 µM) | MIC Staphylococcus aureus (GC 3051) (Staphylococcus sp.; strain GC 3051): 16 µg/mL (≈ 10.9 µM) | MIC Staphylococcus aureus (GC 3053) (Staphylococcus sp.; strain GC 3053): 32 µg/mL (≈ 21.9 µM) | MIC Staphylococcus aureus (GC 4541) (Staphylococcus sp.; strain GC 4541): 16 µg/mL (≈ 10.9 µM) | MIC Staphylococcus aureus (GC 4542) (Staphylococcus sp.; strain GC 4542): 32 µg/mL (≈ 21.9 µM) | MIC Staphylococcus aureus-SMITH (GC 4543) (Staphylococcus sp.; strain GC 4543): 16 µg/mL (≈ 10.9 µM) | MIC Staphylococcus aureus (GC 4544) (Staphylococcus sp.; strain GC 4544): 32 µg/mL (≈ 21.9 µM) | MIC Staphylococcus aureus (GC 4545) (Staphylococcus sp.; strain GC 4545): 16 µg/mL (≈ 10.9 µM) | MIC Coagulase Negative Staphylococcus (GC 4547) (Staphylococcus sp.; strain GC 4547): 16 µg/mL (≈ 10.9 µM) | MIC Coagulase Negative Staphylococcus (GC 4548) (Staphylococcus sp.; strain GC 4548): 8 µg/mL (≈ 5.47 µM) | MIC Coagulase Negative Staphylococcus (GC 4549) (Staphylococcus sp.; strain GC 4549): 8 µg/mL (≈ 5.47 µM) | MIC Coagulase Negative Staphylococcus (GC 4551) (Staphylococcus sp.; strain GC 4551): 32 µg/mL (≈ 21.9 µM) | MIC Coagulase Negative Staphylococcus (GC 6257) (Staphylococcus sp.; strain GC 6257): 4 µg/mL (≈ 2.74 µM) | MIC Streptococcus pneumoniae (ATCC 6301) (Streptococcus sp.; strain ATCC 6301): 4 µg/mL (≈ 2.74 µM) | MIC Streptococcus pneumoniae (GC 1894) (Streptococcus sp.; strain GC 1894): 4 µg/mL (≈ 2.74 µM) | MIC Streptococcus pyogenes (GC 4563) (Streptococcus sp.; strain GC 4563): 8 µg/mL (≈ 5.47 µM) | MIC Streptococcus agalactiae (GC 4564) (Streptococcus sp.; strain GC 4564): 16 µg/mL (≈ 10.9 µM) | MIC Streptococcus pneumoniae (GC 4565) (Streptococcus sp.; strain GC 4565): 4 µg/mL (≈ 2.74 µM)
Structure (SMILES): CC(c1ccccc1)C1NC(=O)CNC(=O)C(CO)NC(=O)C(C(O)C2CNC(=N)N2C2OC(CO)C(O)C(O)C2O)NC(=O)C(C(O)C2CNC(=N)N2)NC(=O)C(Cc2ccc(OC3OC(CO)C(OC4OC5COC(c6ccc(S(C)(=O)=O)cc6)OC5C(O)C4O)C(O)C3O)cc2)NC1=O (stereo not drawn) [Example 157, Cyclo[glycyl-β-methylphenylalanyl-O-[4-O-[4,6-O-(4-(methylsulfonyl)benzylidene)hexopyranosyl]hexopyranosyl]tyrosyl-3-(2-iminoimidazolidin-4-yl)seryl-3-(3-hexopyranosyl-2-iminoimidazolidin-4-yl)serylseryl]]
MIC Staphylococcus haemolyticus (GC 4546) (Staphylococcus sp.; 5×10^5 CFU/mL): 16 µg/mL (≈ 10.9 µM) | MIC Staphylococcus haemolyticus (GC 4546) (Staphylococcus sp.; strain GC 4546): 16 µg/mL (≈ 10.9 µM)
